Source: PMC5500849, “Cobamide-mediated enzymatic reductive dehalogenation via long-range electron transfer” (Nature Communications, 2017)
Blank lines part the entries; values can stand above or below the compound they belong to.

Assays:
PceA (PceA–Strep) [1] = biological target: T1, PceA (PceA–Strep) (Sulfurospirillum multivorans, UniProt O68252); experiment: crystal structure, soaked crystal; format: binding; settings: [Co(II)] state
T1 construct: C-terminal Strep-tag II, homologously produced in S. multivorans GD21 (genomic pceAB), Strep-Tactin purified; crystals from mature enzyme (Tat signal peptide removed); holo with norpseudo-B12 and two [4Fe-4S] clusters

PceA (PceA–Strep) [2] = biological target: T1, PceA (PceA–Strep); experiment: inhibition of 4-BP dehalogenation; format: biochemical; settings: 47 nM enzyme, dark 2 min; covalent, alkylates cobamide [Co(I)], reversed by light

T1 sequence (O68252 38-501): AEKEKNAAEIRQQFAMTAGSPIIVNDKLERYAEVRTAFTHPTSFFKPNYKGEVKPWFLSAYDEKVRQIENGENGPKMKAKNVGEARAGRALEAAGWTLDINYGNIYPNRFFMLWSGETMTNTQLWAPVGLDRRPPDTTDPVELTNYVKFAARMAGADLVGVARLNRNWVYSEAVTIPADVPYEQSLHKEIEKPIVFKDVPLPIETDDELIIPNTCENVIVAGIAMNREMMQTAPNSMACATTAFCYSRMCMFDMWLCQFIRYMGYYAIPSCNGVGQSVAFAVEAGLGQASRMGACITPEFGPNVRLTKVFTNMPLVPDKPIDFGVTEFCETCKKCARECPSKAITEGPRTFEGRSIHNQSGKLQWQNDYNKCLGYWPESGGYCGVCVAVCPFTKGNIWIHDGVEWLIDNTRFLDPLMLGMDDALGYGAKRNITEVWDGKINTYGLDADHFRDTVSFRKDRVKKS

crystal structure, soaked crystal (PceA (PceA–Strep) [1]; enzyme with methoxybenzimidazolyl-norcobamide instead of norpseudo-B12): 5MAA (3-BP)
SMILES: Oc1cccc(Br)c1 [3-BP]

SMILES: Oc1cccc(Cl)c1 [3-CP]
crystal structure, soaked crystal (PceA (PceA–Strep) [1]; active site, not dehalogenated): 5M8Y (3-CP)

SMILES: Oc1ccc(Cl)cc1 [4-CP]
crystal structure, soaked crystal (PceA (PceA–Strep) [1]; active site, not dehalogenated): 5M8W (4-CP)

SMILES: Oc1ccc(I)cc1 [4-IP]
crystal structure, soaked crystal (PceA (PceA–Strep) [1]; active site, also surface groove site): 5MA2 (4-IP)

SMILES: CCCI [propyl iodide]
complete inhibition at 100 μM (PceA (PceA–Strep) [2]): complete inhibition of the PceA-mediated 4-BP dehalogenation by propyl iodide in the dark
